According to patent US10094834B2, “Method of selecting individualized brain cancer therapy” (TURUN YLIOPISTO, priority 2012, dated 2018):
“Also recorded” adds a separate entry of the source.

Tests used:
Assay type in all cases: cell-based, human
[1] = system: T98G glioblastoma cells; test: Apoptosis assay by sub-G0/G1 fraction estimation (nuclear fragmentation, PI/FACS); conditions: for apoptotic nuclear fragmentation (sub-G0/G1 fraction): T98G cells depleted of PME-1 (PME-1 siRNA 48 hrs), drug treatment 24 hrs; for effect on PME-1 siRNA and STS mediated apoptosis (nuclear fragmentation): T98G
Procedure: The percentage of the sub-G0/G1 fraction containing fragmented nuclei stained with Propidium iodide (PI) was taken as a measure of apoptotic cells. 3.5-4×10^4 cells were plated in 24-well plates, transfected with siRNA for 48 hrs, and then treated with indicated concentration of test compounds in fresh media. After 24 hrs of treatment, both floating and adherent cells were harvested by centrifugation. Cell pellets were resuspended in 400 μl of hypotonic PI buffer, containing 40 mM Tri-sodium citrate (Merck), 0.3% Triton X-100 (Sigma-Aldrich) and 50 μg/ml Propidium iodide (Sigma-Aldrich) in PBS, and incubated at room temperature for 10 minutes in dark. The flow cytometric analysis of PI stained nuclei was performed and the recorded data was analyzed using a FACScan flow cytometer and software (Becton Dickinson) respectively.
In experiments using pan-caspase inhibitor, cells were kept in growth media containing 30 μM Z-VAD-FMK starting from 18 hrs after transfection till the PI staining.
The T98G cells transfected with siRNA for 48 hrs were given drug treatments for 24 hrs and were subsequently lysed, and their nuclei were stained using hypotonic propidium iodide buffer. The lysates were analysed for changes in the sub-G0/G1 fraction of fragmented nuclei by flow cytometry (FACS) (FIG. 1B). Condensation and fragmentation of nucleus is a key biochemical feature of apoptosis and sub-G0/G1 analysis has been widely used for detection of apoptosis (FEBS Lett., 1986, 194(2):347-50; Cytometry, 1991, 12(4):323-329; Nature Protocols, 2006, 1:1458-1461).

[2] = system: U251MG glioblastoma cells; test: Colony formation assay, U251MG; conditions: PME-1 depleted versus scrambled siRNA, 2 days of treatment
From the text: (§1) Cells plated in very low density (4-6×10^3) in 6-well plates were allowed to grow for about 7 days until they form small colonies. These cells were then transfected with Scrambled or PME-1 siRNA using Lipofectamine RNAiMAX reagent (Invitrogen) according to the manufacturer's instructions. After 48 hrs, treatments were given with indicated concentration of chemical drugs for another 48 hrs. Cell colonies were washed with PBS, fixed with 3.7% formaldehyde and stained with 0.2% crystal violet solution (made in 10% ethanol) for 15 minutes at room temperature each. Excess stain was removed by repeated washings with PBS. Plates were dried and pictures were taken with Olympus SP-600UZ camera or Epson perfection […] scanner and analysed with ImageJ.

[3] = system: U87MG glioblastoma cells; test: Colony formation assay, U87MG; conditions: PME-1 depleted versus scrambled siRNA, 2 days of treatment
From the text: as §1

[4] = system: U118MG glioblastoma cells; test: Colony formation assay, U118MG
From the text: (§2) Cells plated in very low density (4-6×10^3) in 6-well plates were allowed to grow for about 7 days until they form small colonies. These cells were then transfected with Scrambled or PME-1 siRNA using Lipofectamine RNAiMAX reagent (Invitrogen) according to the manufacturer's instructions. After 48 hrs, treatments were given with indicated concentration of chemical drugs for another 48 hrs. Cell colonies were washed with PBS, fixed with 3.7% formaldehyde and stained with 0.2% crystal violet solution (made in 10% ethanol) for 15 minutes at room temperature each. Excess stain was removed by repeated washings with PBS. Plates were dried and pictures were taken with Olympus SP-600UZ camera or Epson perfection V700 scanner and analysed with ImageJ.
(§3) Next, the effect of PME-1 expression on the sensitivity of glioblastoma cells to STS was tested by colony formation assay in T98G glioblastoma cells and another glioblastoma cell line U118MG. For this experiment, these cells were grown in 6-well plates until the formation of small colonies which were then transfected with Scrambled or PME-1 siRNA for 48 hrs followed by treatment with STS at the indicated concentrations for another 48 hrs. […] Similar results were obtained with both glioblastoma cell lines.

[5] = system: Caspase-3/7 in T98G cells; test: Caspase-3 and -7 activity, Caspase-Glo 3/7 Assay
Procedure: Caspase-3 and -7 activity was measured by luminescence based method, which utilize a substrate containing Caspase-3 and -7 target peptide DEVD, named Caspase-Glo 3/7 Assay (Promega Corp.). Assays were performed in white polystyrene 96-well plates (Nunc, Thermo Fisher Scientific Inc.) according to manufacturer's instructions and luminescence was measured with Perkin Elmer Victor2 Plate Reader.

[6] = system: T98G glioblastoma cells; test: Cell viability assay, CellTiter-glo (CTG)
Procedure: Cell viability was determined by CellTiter-glo (CTG) assay which measures the cellular ATP levels as an indicator of metabolically active and viable cells. CTG reagent kit was purchased from Promega Corp. and assays were performed according to their recommendations. Assays were performed in white polystyrene 96-well plates (Nunc, Thermo Fisher Scientific Inc.) and luminescence was measured with Perkin Elmer Victor2 Plate Reader.

[7] = system: T98G glioblastoma cells; test: Colony formation assay, T98G
From the text: as §2, §3

[8] = PME-1 siRNA 48 hrs then drug 48 hrs
[9] = scrambled siRNA (intact PME-1), drug 48 hrs

**Q.** For C[C@]12O[C@H](C[C@]1(O)CO)n1c3ccccc3c3c4c(c5c6ccccc6n2c5c31)CNC4=O [CEP-701, (9S,10S,12R)-2,3,9,10,11,12-Hexahydro-10-hydroxy-10-(hydroxymethyl)-9-methyl-9,12-epoxy-1H-diindolo[1,2,3-fg:3′,2′,1′-kl]pyrrolo[3,4-i][1,6]benzo di-azocin-1-one], which “apoptotic nuclear fragmentation (sub-G0/G1 fraction)” value [1] is on record?
**A.** The value was “levels even higher than STS itself”.

**Q.** How did the “apoptotic nuclear fragmentation (sub-G0/G1 fraction)” value [1] turn out when TRAIL was run?
**A.** Its value is “did not show the same trend”.

**Q.** Which “apoptotic nuclear fragmentation (sub-G0/G1 fraction)” value [1] does the source give for O=C1NC(=O)c2c1c1c3ccccc3n3c1c1c2c2ccccc2n1C1CCC3O1 [SB 218078, 9,10,11,12-Tetrahydro-9,12-epoxy-1H-diindolo[1,2,3-fg:3′,2′,1′-kl]pyrrolo[3,4-i][1,6]benzodi-azocine-1,3(2H)-dione] here?
**A.** The value was “moderate levels of apoptosis at higher concentration”.

**Q.** With CO[C@@H]1[C@H](N(C)C(=O)c2ccccc2)C[C@H]2O[C@]1(C)n1c3ccccc3c3c4c(c5c6ccccc6n2c5c31)C(=O)NC4 [PKC412, [9S-(9α, 10β,11β,13α)]-N-(2,3,10,11,12,13-Hexahydro-10-methoxy-9-methyl-1-oxo-9,13-epoxy-1H,9H-diindolo[1,2,3-gh:3′,2′,1′-lm]pyrrolo[3,4-j][1,7]benzodiazonin-11-yl)-N-methyl benzamide] as the compound, how does the “apoptotic nuclear fragmentation (sub-G0/G1 fraction)” value [1] read?
**A.** Its value is “levels even higher than STS itself”.

**Q.** What about the “cell killing activity, colony formation” value [2] of the same compound?
**A.** Its value is “enhanced the cell killing activity”.

**Q.** What about the “cell killing activity, colony formation” value [3] of the same compound?
**A.** The value was “enhanced the cell killing activity”.

**Q.** With CN[C@@H]1C[C@H]2O[C@@](C)([C@@H]1OC)n1c3ccccc3c3c4c(c5c6ccccc6n2c5c31)C(=O)N[C@H]4O [UCN-01, (9S)-2,3,10,11,12,13-Hexahydro-3α-hydroxy-10α-methoxy-9-methyl-11α-methyl amino-9β,13β-epoxy-1H,9H-diindolo[1,2,3-gh:3′,2′,1′-lm]pyrrolo[3,4-j][1,7]benzo diazonin-1-one] as the compound, how does the “apoptotic nuclear fragmentation (sub-G0/G1 fraction)” value [1] read?
**A.** Its value is “levels even higher than STS itself”.

**Q.** COC(=O)[C@@]1(O)C[C@H]2O[C@]1(C)n1c3ccccc3c3c4c(c5c6ccccc6n2c5c31)C(=O)NC4 [K252a] was tested. Which “apoptotic nuclear fragmentation (sub-G0/G1 fraction)” value [1] did it give?
**A.** The value was “levels even higher than STS itself”.

**Q.** And the “cell killing activity, colony formation” value [2]?
**A.** Its value is “enhanced the cell killing activity”.

**Q.** What about the “cell killing activity, colony formation” value [3] of the same compound?
**A.** Its value is “enhanced the cell killing activity”.

**Q.** CC1CNCCN1S(=O)(=O)c1cccc2cnccc12 (centres unmarked) [H7] was tested. Which “apoptotic nuclear fragmentation (sub-G0/G1 fraction)” value [1] did it give?
**A.** Its value is “moderate”.

**Q.** What does the source list for CN[C@@H]1C[C@H]2O[C@@](C)([C@@H]1OC)n1c3ccccc3c3c4c(c5c6ccccc6n2c5c31)C(=O)NC4 [STS, [9S-(9α,10β,11β,13α)]-2,3,10,11,12,13-Hexa-hydro-10-methoxy-9-methyl-11-(methylamino)-9,13-epoxy-1H,9H-diindolo[1,2,3-gh:3′,2′,1′-lm]pyrrolo[3,4-j][1,7]benzo diazonin-1-one]?
**A.** apoptotic nuclear fragmentation (sub-G0/G1 fraction) [1]: very high level of nuclear fragmentation; also recorded: induce apoptosis in a dose dependent manner; also recorded: highly sensitive to STS induced cell death even at lowest concentrations; concentration at which drug alone started inducing cell death ([1]; control (Scrambled siRNA transfected) T98G cells): higher than 50 nM; concentration at which limited cell death was observed with drug alone ([1]; untransfected T98G cells): higher than 30 nM; cell killing activity, colony formation [2]: enhanced the cell killing activity; colony formation (colonogenic potential) [4, 8]: almost complete loss of colonies; colony formation (colonogenic potential) [4, 9]: did not respond well; increase of Caspase-3/7 activity ([5]; PME-1 depletion in combination with STS treatment): above 6 fold; cell viability (CTG) ([6]; PME-1 siRNA plus STS treatment): drastic decrease in the cell viability; cell killing activity, colony formation [3]: enhanced the cell killing activity; colony formation (colonogenic potential) [7, 8]: almost complete loss of colonies; colony formation (colonogenic potential) [7, 9]: did not respond well

**Q.** Which “effect on PME-1 siRNA and STS mediated apoptosis (nuclear fragmentation)” value ([1]; PME-1 siRNA plus STS, pan-caspase inhibitor 30 μM throughout the experiment) does the source give for z-VAD-fmk here?
**A.** The value was “complete reversal”.

**Q.** With “PME-1 siRNA: PME-1 siRNA 5′-GGA AGU GAG UCU AUA AGC A-3′; SEQ ID NO:1 (GGAAGUGAGUCUAUAAGCA; listed as RNA, chemistry not given here)” as the compound, how does the “increase of Caspase-3/7 activity” value ([5]; PME-1 depletion alone) read?
**A.** The value was “more than 2 fold”.

**Q.** And the “cell viability (CTG)” value ([6]; PME-1 siRNA alone)?
**A.** The value was “reduced cell viability by small fraction”.

**Q.** How did the “effect on PME-1 siRNA and STS mediated apoptosis (nuclear fragmentation)” value ([1]; PP2A inhibitor pre-treatment 24 hrs prior STS treatment) turn out when C=C1[C@@H](O)[C@@H]2O[C@]3(CC[C@H](/C=C/[C@@H](C)[C@@H]4CC(C)=C[C@@]5(O[C@H](C[C@@](C)(O)C(=O)O)CC[C@H]5O)O4)O3)CC[C@H]2O[C@@H]1[C@@H](O)C[C@H](C)[C@H]1O[C@@]2(CCCCO2)CC[C@H]1C [okadaic acid] was run?
**A.** The value was “sufficient to rescue cells”.
